Measurements from patent US9096539B2, “Substituted 4,5-dihydro-2H-benzo[e]indazole-9-carboxylates for the treatment of diabetes and related disorders” (Council of Scientific & Industrial Research, priority 2012, dated 2015).
Where two headings read alike, the source gives them in different places.

How the values were obtained:
[1] = test system: sucrose challenged STZ induced diabetic rats; assay: Antihyperglycaemic activity in sucrose challenged streptozotocin (STZ)-induced diabetic rats (STZ-S); type: in vivo, rat; details: compounds 100 mg/kg, Januvia 50 mg/kg; for % Antihyperglycaemic activity STZ-S 0-5 h AUC / % Antihyperglycaemic activity STZ-S 0-24 h AUC: oral; for Blood Glucose Profile 0 min (Pre treatment): 0 min pre treatment (fasting baseline)
Procedure: The test compounds and standard antidiabetic drug Januvia were prepared in 1.0% freshly prepared Gum acacia. Assessment of Test Compounds for Antihyperglycaemic Activity in Sucrose Challenged Streptozotocin STZ-Induced Diabetic Rats— Induction of Diabetes in Rats: Overnight starved male albino rats of Sprague Dawley strain were used and Diabetes was induced in the animals by single intraperitoneal injection of Streptozotocin at 60 mg/kg body weight dose prepared in 0.1M citrate buffer (pH 4.5). Fasting blood glucose level was measured by using a Glucometer (ACCU-CHEK II; […] Grouping and Treatment: […] All the diabetic animals were again divided into groups with five animals in each group. Animals of one group were regarded as the control group (orally administered 1% gum acacia) and the others were treated as the experimental groups. […] Animals of the control group were given an equal amount of 1.0% gum acacia. The standard antidiabetic drug Januvia was given to the animals at an oral dose of 50 mg/kg body weight. […] Food but not water was withheld from the cages during the course of experimentation. Percent hyperglycemic activity was determined by comparing the AUC (area under curve) of experimental groups with that of the vehicle treated control group. Quantitative glucose tolerance of each animal was calculated by the area under the curve (AUC) method using Prism Software. The area under the curve of the control group and the experimental group was compared to determine the percent antihyperglycaemic activity. Statistical comparisons were performed by one-way analysis of variance (ANOVA), followed by Dunnett's multiple range test (DMRT). […] Results were expressed as mean±SEM.

[2] = test system: low dosed STZ induced diabetic rats; assay: Antihyperglycaemic activity in low dosed streptozotocin induced diabetic rats (STZ); type: in vivo, rat; details: for Blood Glucose Profile 0 min (Pre treatment): 0 min pre treatment (fasting baseline); for Blood Glucose Profile 0 min (Pre treatment) / Blood Glucose Profile 30 min (Post treatment) / Blood Glucose Profile 60 min (Post treatment) / Blood Glucose Profile 90 min (Post treatment) / Blood Glucose Profile 120 min (Post treatment) / Blood Glucose Profile 180 min (Post treatment) / Blood Glucose Profile 240 min (Post treatment) / Blood Glucose Profile 300 min (Post treatment) / Blood Glucose Profile 1440 min (Post treatment) / % Antihyperglycaemic activity STZ 0-5 h AUC / % Antihyperglycaemic activity STZ 0-24 h AUC: low dosed STZ diabetic rats, compounds 100 mg/kg, Januvia 50 mg/kg; for % Antihyperglycaemic activity STZ 0-5 h AUC / % Antihyperglycaemic activity STZ 0-24 h AUC: oral; for lowering in the hyperglycaemia of the diabetic rats: low dosed streptozotocin induced diabetic rats, 100 mg/kg, result in words
Procedure: The test compounds and standard antidiabetic drug Januvia were prepared in 1.0% freshly prepared Gum acacia.
Assessment of Test Compounds for Antihyperglycaemic Activity in Low Dosed Streptozotocin Induced Diabetic Rats—
Induction of Diabetes in Rats:
Overnight starved male albino rats of Sprague Dawley strain were used and Diabetes was induced in the animals by single intraperitoneal injection of Streptozotocin at 60 mg/kg body weight dose prepared in 0.1M citrate buffer (pH 4.5). Fasting blood glucose level was measured by using a Glucometer (ACCU-CHEK II; Roche Diagnostics, USA) after 48 hours and animals showing blood glucose level above 300 mg/di were considered as diabetic.
The diabetic animals were divided into four groups (Group 1 to 4) each consisting 6 rats. Group 1 received 0.4 ml vehicle (1% gum acacia). Group 2 received the test compound 5 at an oral dose of 100 mg/kg/body weight. Group 3 was given compound 6 at an oral dose of 100 mg/kg/body weight. The standard antidiabetic drug Januvia was given to the animals of Group 4 at an oral dose of 50 mg/kg body weight. […] Food but not water was withheld from the cages during the course of experimentation. Percent hyperglycemic activity was determined by comparing the AUC (area under curve) of experimental groups with that of the vehicle treated control group.
Quantitative glucose tolerance of each animal was calculated by the area under the curve (AUC) method using Prism Software. The area under the curve of the control group and the experimental group was compared to determine the percent antihyperglycaemic activity. Statistical comparisons were performed by one-way analysis of variance (ANOVA), followed by Dunnett's multiple range test (DMRT). The results were considered statistically significant if the ‘p’ values were 0.05 or less. Results were expressed as mean±SEM.

[3] = molecular target: T1, human recombinant PTP1B enzyme (Homo sapiens, UniProt P18031); assay: Protein tyrosine phosphatase-1B assay (colorimetric kit BML-AK 822); type: biochemical; details: for inhibition at 0.3 µM: read-out: % Inhibition at different Inhibitor concentration 0.3 μM; for inhibition at 1 µM: read-out: % Inhibition at different Inhibitor concentration 1 μM; for inhibition at 3 µM: read-out: % Inhibition at different Inhibitor concentration 3 μM; for inhibition at 5 µM: read-out: % Inhibition at different Inhibitor concentration 5 μM; for IC50: from % inhibition at 5 concentrations 0.3-10 μM
T1 construct: purchased Enzo Life Sciences, USA BML-AK 822
T1 sequence (P18031 1-322 limits assumed): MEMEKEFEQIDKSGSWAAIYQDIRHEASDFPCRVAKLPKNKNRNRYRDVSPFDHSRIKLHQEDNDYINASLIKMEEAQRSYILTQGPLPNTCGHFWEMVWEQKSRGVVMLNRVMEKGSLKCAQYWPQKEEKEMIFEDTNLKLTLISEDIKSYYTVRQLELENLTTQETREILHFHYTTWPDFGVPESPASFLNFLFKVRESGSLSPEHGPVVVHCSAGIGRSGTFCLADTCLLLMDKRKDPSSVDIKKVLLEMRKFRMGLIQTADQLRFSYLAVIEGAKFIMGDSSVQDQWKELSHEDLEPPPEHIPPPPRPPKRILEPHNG
Procedure: Assay was done according to the Kit manufacturers protocol, in brief the reaction was carried out in 96 well flat bottomed microtiter plate by the addition of assay buffer, solution of test compounds and diluted PTP1B enzyme. Enzyme reaction was initiated by addition of 50 μl of warmed 2× substrate then incubated the plate at 30° C. for 30 min. After incubation for 30 min. Reaction was terminated by addition of 25 μl of biomol red reagent and mixed thoroughly by repeated pipetting. […] Volumes and dilution of other component were accordingly as instructed in the manual provided in the kit. PTP1B phosphatase acting on the phosphopeptide substrate and release phosphate. The detection of free phosphate released is based on classic Malachite green assay. After adding biomol red to reaction wells after 30 minutes of incubation as described earlier the plate was incubated for another 20 min to develop the colour. Absorbance was recorded at 620 nm. on a microplate reader.

[4] = Table 5, evaluated at 10 μM concentration, read-out: % Inhibition (PTP-1B)
[5] = Table 6 dose response, 10 μM, read-out: % Inhibition at different Inhibitor concentration 10 μM

Compound	% Antihyperglycaemic activity STZ-S 0-5 h AUC [1]	% Antihyperglycaemic activity STZ-S 0-24 h AUC [1]	Blood Glucose Profile 0 min (Pre treatment) [1]	Blood Glucose Profile 30 min (Post treatment) [1]	Blood Glucose Profile 60 min (Post treatment) [1]	Blood Glucose Profile 90 min (Post treatment) [1]	Blood Glucose Profile 120 min (Post treatment) [1]	Blood Glucose Profile 180 min (Post treatment) [1]	Blood Glucose Profile 240 min (Post treatment) [1]	Blood Glucose Profile 300 min (Post treatment) [1]	Blood Glucose Profile 1440 min (Post treatment) [1]	Blood Glucose Profile 0 min (Pre treatment) [2]	Blood Glucose Profile 30 min (Post treatment) [2]	Blood Glucose Profile 60 min (Post treatment) [2]	Blood Glucose Profile 90 min (Post treatment) [2]	Blood Glucose Profile 120 min (Post treatment) [2]	Blood Glucose Profile 180 min (Post treatment) [2]	Blood Glucose Profile 240 min (Post treatment) [2]	Blood Glucose Profile 300 min (Post treatment) [2]	Blood Glucose Profile 1440 min (Post treatment) [2]	also measured
COC(=O)c1c(SC)cc(-c2ccc(C)cc2)c2c1-c1cn(-c3ccccc3)nc1CC2 [compound 5, methyl 8-(methylthio)-2-phenyl-6-p-tolyl-4,5-dihydro-2H-benzo[e]indazole-9-carboxylate]	20.4%	23.6%	222.3 ± 9.39 mg/dL	515.6 ± 15.5 mg/dL	528.6 ± 14.4 mg/dL	506.5 ± 14.0 mg/dL	459.6 ± 11.2 mg/dL	402.1 ± 5.58 mg/dL	332.5 ± 15.6 mg/dL	284.3 ± 16.9 mg/dL	411.1 ± 13.6 mg/dL	346.6 ± 6.19 mg/dL	434.2 ± 12.4 mg/dL	481.2 ± 11.8 mg/dL	447.0 ± 8.16 mg/dL	434.8 ± 11.7 mg/dL	385.6 ± 5.8 mg/dL	353.6 ± 16.4 mg/dL	362.4 ± 17.6 mg/dL	483.0 ± 3.95 mg/dL	% Antihyperglycaemic activity STZ 0-5 h AUC [2]: 23.1%; % Antihyperglycaemic activity STZ 0-24 h AUC [2]: 18.2%; lowering in the hyperglycaemia of the diabetic rats [2]: significant lowering in the hyperglycaemia; inhibition at 10 µM [3, 4]: 83.8%; inhibition at 0.3 µM ([3]; Table 6 dose response): 3.89%; inhibition at 1 µM ([3]; Table 6 dose response): 13.2%; inhibition at 3 µM ([3]; Table 6 dose response): 24.1%; inhibition at 5 µM ([3]; Table 6 dose response): 36.7%; inhibition at 10 µM [3, 5]: 67.8%; IC50 [3]: 7.12 µM; melting point: 178 to 180 °C
COC(=O)c1c(SC)cc(-c2cccc3ccccc23)c2c1-c1cn(-c3ccccc3)nc1CC2 [compound 6, methyl 8-(methylthio)-6-(naphthalen-1-yl)-2-phenyl-4,5-dihydro-2H-benzo[e]indazole-9-carboxylate]	29.7%	25.7%	222.6 ± 6.55 mg/dL	442.1 ± 18.2 mg/dL	520.0 ± 10.3 mg/dL	464.0 ± 14.4 mg/dL	399.3 ± 14.0 mg/dL	334.0 ± 13.4 mg/dL	301.6 ± 18.8 mg/dL	277.0 ± 10.1 mg/dL	405.0 ± 17.6 mg/dL	344.0 ± 3.91 mg/dL	444.6 ± 16.6 mg/dL	492.0 ± 13.6 mg/dL	490.2 ± 11.2 mg/dL	474.8 ± 15.0 mg/dL	426.0 ± 16.0 mg/dL	385.8 ± 15.6 mg/dL	355 ± 14.3 mg/dL	442.4 ± 9.64 mg/dL	% Antihyperglycaemic activity STZ 0-5 h AUC [2]: 18.9%; % Antihyperglycaemic activity STZ 0-24 h AUC [2]: 20.1%; lowering in the hyperglycaemia of the diabetic rats [2]: significant lowering in the hyperglycaemia; inhibition at 10 µM [3, 4]: 76.9%; inhibition at 0.3 µM ([3]; Table 6 dose response): 0.5%; inhibition at 1 µM ([3]; Table 6 dose response): 11.2%; inhibition at 3 µM ([3]; Table 6 dose response): 16.2%; inhibition at 5 µM ([3]; Table 6 dose response): 28.8%; inhibition at 10 µM [3, 5]: 62.3%; IC50 [3]: 8.12 µM; melting point: 182 to 184 °C
